Assay results reported in ChEMBL document CHEMBL3992495, “Aliphatic and alicyclic camphor imines as effective inhibitors of influenza virus H1N1” (Eur J Med Chem, 2017).
Structures can show the parent of a compound that is named as a salt.

How the values were obtained:
[1] = system: Influenza A virus (A/Puerto Rico/8/34(H1N1)); experiment: Selectivity index, ratio of CTD50 for MDCK cells to ED50 for Influenza A virus (A/Puerto Rico/8/34(H1N1)); type: toxicity; conditions: dog, read-out: Selectivity Index
[2] = Antiviral activity against Influenza A virus (A/California/07/09(H1N1)) infected in MDCK cells assessed as inhibition of viral replication after 48 hrs by hemagglutination test; type: functional, Influenza A virus (A/California/07/2009(H1N1)); conditions: read-out: ED50 (the source's name)
[3] = system: Influenza A virus (A/California/07/09(H1N1)); experiment: Selectivity index, ratio of CTD50 for MDCK cells to ED50 for Influenza A virus (A/California/07/09(H1N1)); type: toxicity; conditions: dog, read-out: Selectivity Index
Influenza A virus = experiment: Antiviral activity against Influenza A virus (A/Puerto Rico/8/34(H1N1)) infected in MDCK cells assessed as inhibition of viral replication after 48 hrs by hemagglutination test; type: functional; conditions: A/Puerto Rico/8/1934(H1N1), read-out: ED50 (the source's name)
[4] = Cytotoxicity against MDCK cells after 48 hrs by MTT assay; type: cell-based, Canis lupus familiaris; conditions: dog, read-out: CTD50

SMILES | selectivity ratio [1] | EC50 ([2]; Influenza A virus, MDCK, 48 h) | selectivity ratio [3] | EC50 (Influenza A virus) | CC50 at 48 h [4] | EC50 [2]
CCCCCCCCCCCCCCCCCC/N=C1\C[C@H]2CC[C@]1(C)C2(C)C | < 1 | 744 µM | > 1 | > 744 µM | > 744 µM | –
CCCCC/N=C1\C[C@H]2CC[C@]1(C)C2(C)C | 66 | 7.7 µM | 104 | 12.2 µM | 801 µM | –
CCCCCCCCCCCC/N=C1\C[C@H]2CC[C@]1(C)C2(C)C | < 2 | 15.7 µM | 4 | > 37.6 µM | 62.1 µM | –
CCC/N=C1\C[C@H]2CC[C@]1(C)C2(C)C | > 632 | 19.7 µM | > 131 | 4.1 µM | > 2590 µM | –
CCCCCCCC/N=C1\C[C@H]2CC[C@]1(C)C2(C)C | 10 | 64.6 µM | 2 | 9.9 µM | 97.3 µM | –
CCCCCCCCCC/N=C1\C[C@H]2CC[C@]1(C)C2(C)C | 5 | 17.2 µM | 3 | 10.3 µM | 50.9 µM | –
CCCCCC/N=C1\C[C@H]2CC[C@]1(C)C2(C)C | 16 | 26 µM | 18 | 29.8 µM | 468 µM | –
CC1(C)[C@@H]2CC[C@@]1(C)/C(=N/C1CCCCC1)C2 | > 83 | 55.4 µM | > 23 | 15.5 µM | > 1290 µM | –
CC(N)[C@@H]1C[C@H]2CC[C@@H]1C2 (some centres undefined) | – | 206 to 209 µM | – | 230 µM | 1260 to 1270 µM | –
CC1(C)[C@@H]2CC[C@@]1(C)/C(=N/C1CC1)C2 | 2 | 592 µM | 3 | 738 µM | 1660 µM | –
CCCC/N=C1\C[C@H]2CC[C@]1(C)C2(C)C | 417 | 7.7 µM | 312 | 5.8 µM | 2420 µM | –
CC1(C)[C@@H]2CC[C@@]1(C)/C(=N/CCO)C2 | – | 5 µM | 500 | – | 2500 µM | –
CCCCCCC/N=C1\C[C@H]2CC[C@]1(C)C2(C)C | 49 | 1.4 µM | 171 | 4.8 µM | 234 µM | –
NC12CC3CC(CC(C3)C1)C2 [AMANTADINE] | 4 | 64.2 to 70 µM | 4 | 72.8 µM | 280 to 284 µM | –
CC12CCC(CC1=O)C2(C)C (centres undefined) [CAMPHOR] | 2 | – | 2 | 1450 µM | – | 1640 µM
CC(N)C12CC3CC(CC(C3)C1)C2 (centres undefined) [RIMANTADINE HYDROCHLORIDE] | 4 | 67 µM | 5 | 83.8 µM | – | –
